Assay [1] deals with Estrogen receptor beta (Homo sapiens) (UniProt Q92731). The assay can be described thus: Displacement of [3H]estradiol from purified full length human ERbeta receptor relative to estradiol. Background: In a radioligand displacement assay an active substance lowers the binding of a labelled ligand.
Assay [2] addresses T1, Estrogen receptor (Homo sapiens) (UniProt P03372).
T1 sequence (whole entry): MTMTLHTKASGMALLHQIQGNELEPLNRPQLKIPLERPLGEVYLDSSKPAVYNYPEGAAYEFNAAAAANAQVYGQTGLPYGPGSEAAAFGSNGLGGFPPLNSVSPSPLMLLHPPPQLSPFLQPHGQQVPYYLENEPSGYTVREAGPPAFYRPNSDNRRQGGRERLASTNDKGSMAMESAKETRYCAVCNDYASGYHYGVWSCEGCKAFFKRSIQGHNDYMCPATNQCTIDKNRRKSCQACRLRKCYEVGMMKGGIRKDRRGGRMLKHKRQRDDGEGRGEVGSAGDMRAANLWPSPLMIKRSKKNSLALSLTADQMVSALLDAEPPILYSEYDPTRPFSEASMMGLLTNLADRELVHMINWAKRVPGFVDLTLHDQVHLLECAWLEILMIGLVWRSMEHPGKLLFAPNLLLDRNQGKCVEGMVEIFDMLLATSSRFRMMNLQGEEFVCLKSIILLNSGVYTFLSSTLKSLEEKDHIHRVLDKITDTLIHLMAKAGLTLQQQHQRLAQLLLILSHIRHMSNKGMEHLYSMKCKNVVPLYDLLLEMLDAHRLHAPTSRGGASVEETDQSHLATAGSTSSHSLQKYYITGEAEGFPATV
Put plainly: Displacement of [3H]estradiol from purified full length human ERalpha receptor relative to estradiol.

A further assay is filed under the species Homo sapiens. The assay can be described thus: Selectivity ratio of human ERbeta receptor over human ERalpha receptor.

Chain of Estrogen receptor beta (Homo sapiens) (Q92731 whole entry): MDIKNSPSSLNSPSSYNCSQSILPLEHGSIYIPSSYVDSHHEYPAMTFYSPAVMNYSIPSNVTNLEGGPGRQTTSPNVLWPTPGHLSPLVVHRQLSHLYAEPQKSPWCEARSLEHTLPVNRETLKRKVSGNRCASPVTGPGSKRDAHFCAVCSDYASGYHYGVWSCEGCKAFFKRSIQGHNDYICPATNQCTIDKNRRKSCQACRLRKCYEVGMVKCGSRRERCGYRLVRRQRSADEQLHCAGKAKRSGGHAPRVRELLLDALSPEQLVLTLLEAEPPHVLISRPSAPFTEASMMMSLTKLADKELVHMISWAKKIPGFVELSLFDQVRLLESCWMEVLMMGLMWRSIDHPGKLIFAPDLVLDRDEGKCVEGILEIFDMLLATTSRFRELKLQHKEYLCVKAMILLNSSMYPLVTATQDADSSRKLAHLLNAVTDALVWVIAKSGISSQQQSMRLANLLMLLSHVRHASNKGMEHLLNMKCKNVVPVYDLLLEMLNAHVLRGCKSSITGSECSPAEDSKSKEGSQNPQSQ

With `COc1ccc(-c2ccc(/C=N/O)c(O)c2C)cc1`, the RBA in assay [1] is 0.007%; in assay [2], 0.005%.
The like results for `COc1ccc(-c2ccc(/C=N/O)c(O)c2)cc1` were, in that order, less than 0.004% and 0.01%.
In the same order, the values of `O/N=C/c1ccc(-c2ccccc2)cc1O` are less than 0.004% and less than 0.004%.
For the molecule `N#Cc1c(-c2ccc(O)cc2)ccc(/C=N/O)c1O`, the RBA was determined as 0.078% in assay [1] and 0.004% in assay [2]. In addition, in the assay filed under Homo sapiens, the Ratio worked out at 20.
Take `O/N=C/c1ccc(-c2ccc(O)cc2)cc1O`: the values for the RBA in assay [1] and in assay [2] were 0.553% and 0.007%, respectively. The Ratio in the assay filed under Homo sapiens amounted to 79.
In the same order, the values of `Cc1c(-c2ccc(O)cc2)ccc(/C=N/O)c1O` are 4.1%, 0.249% and 16.
